Measurements published in patent EP0082731A1, “The use of peptides as medicaments” (NOVO INDUSTRI A/S, priority 1981, dated 1983).

Columns and labels:
[1] = tested on: rats; assay: Experiment A: effect on IRI-release in glucose-infused rats in vivo (RIA on plasma); set-up: species or system Wistar strain; settings: anaesthetized rats, i.v. glucose 1.5 mg/min + glucagon(1-21) 100 µg/kg/h
Method: 10 male rats, Wistar strain, 150 g (+/- 5 g) were anaesthetized with Pentobarbital. Polyethylene catheters were inserted into the right carotid artery for blood sampling and the left jugular vein for infusions. The rats were divided into two groups with 5 animals in each group. One group was infused with glucose (1.5 mg/min) from 0 to 60 minutes (placebo) and one group was infused with glucose (1.5 mg/min) + glucagon(1-21) (100 µg/kg/h) from […]. Blood was sampled into glasses on ice containing heparin (250 IU/ml) and aprotinin (600 KIU/ml) at the times 0, 1, 10, 20, 30, 40, 50, and 60 minutes. Insulin was determined by radio- immuno assay (RIA) on plasma.

[2] = tested on: rats; assay: Experiment B2: oral glucose tolerance test in rats; type: in vivo, Wistar rats; settings: glucose 5 g/kg perorally at 0 and 60 min, glucagon(1-21) 1 mg/kg at 0, 30, 60, 90 min
Method: The effect of glucagon(1-21) was investigated in rats during an oral glucose tolerance test. 20 male Wistar rats were divided into 2 groups of 10 rats-and dosed as follows: Both groups were dosed with glucose (5 g/kg, perorally) at 0 and 60 minutes. The placebo group was dosed with 1 ml of 0.9% saline with 0.1% HSA intraperitoneally at the times 0, 30, 60, and 90 minutes. The other group was dosed with glucagon(1-21) (1 mg/kg) in 0.9% saline with HSA . at the times 0, 30, 60, and 90 minutes. Blood samples were drawn from the tails at the times -5, 0, 15, 30, 45, 60, 90, and 120 minutes for blood glucose determination. The blood glucose values are stated in Table III below.

[3] = tested on: pigs; assay: Experiment C1: effect on plasma glucose in pigs during intravenous glucose infusion; type: in vivo, pigs (Danish breed/Yorkshire); settings: for Plasma glucose: pigs, cross-over, i.v. glucose 0.7 g/kg/h + glucagon(1-21) 100 µg/kg/h 0-120 min
Method: The effect of glucagon(1-21) on plasma glucose levels was investigated during an intravenous glucose infusion. 4 female pigs (Danish breed/Yorkshire) weighing 30 kg (+/- 3 kg) were dosed with glucose (0.7 g/kg/h) as an intravenous infusion and with the same glucose infusion + infusion of glucagon(-1-21) (100µg/kg/h) from 0 to 120 minutes. The experiment was carried out as a cross-over experiment. The pigs were infused through intravenous ear catheters and blood samples were taken from the other ear at the times 0, 15, 30, 45, 60, 75, 90, 105, and 120 minutes. Glucose was analyzed by the hexokinase method and the blood glucose values are stated in Table IV below.

[4] = tested on: pigs; assay: Experiment C2: oral glucose tolerance test in pigs; type: in vivo; settings: cross-over, glucose 5 g/kg perorally at 0 and 60 min, glucagon(1-21) 1 mg/kg/h i.v. 0-120 min
Method: The effect of glucagon(1-21) on plasma glucose levels was investigated during an oral glucose tolerance test in pigs. 4 pigs were dosed in a cross-over experiment with glucose (5 g/kg) perorally at 0 and 60 minutes + placebo (saline with HSA) or glucagon(1-21) (1 mg/kg/h) from 0 to 120 minutes intravenously. Blood samples were drawn from an ear vein at the times -5, 10, 20, 30, 45, 60, 75, 90, 105, and 120 minutes and plasma glucose was assayed by the hexokinase method. The plasma glucose values are stated in Table V below: […]

[5] = tested on: Normoglycaemic Rats; assay: Experiment D: effect on plasma glucose and plasma IRI levels in normoglycaemic rats; type: in vivo, Wistar rats; settings: for Blood glucose / Plasma IRI: i.v. injection at 0 min, equimolar doses (glucagon 1 mg/kg, glucagon(1-21) 0.77 mg/kg), mean, N = 10
Method: Glucagon (-1 mg/kg) and an equimolar dosis of glucagon(1-21), i.e. 0.77 mg/kg, were injected intravenously at the beginning time (time: 0 minutes) to normally fed male Wistar rats weighing 150 g (+/- 5 g). Blood samples were taken from the orbital plexus at the times -5, 2, 5, 10, 15, 30, and 60 minutes. Blood glucose was assayed according to the hexokinase method and plasma insulin was assayed by RIA. […] Contrary to glucagon, glucagon(1-21) had no effect on these parameters. Mean blood glucose values (N = 10) are stated in Table VI below, and mean plasma IRI values (N = 10) are stated in Table VII below.

[6] = tested on: NMRI mice; assay: Experiment E: acute toxicity study; type: in vivo; settings: 10 mg intravenously as a bolus, about 500 mg/kg body weight
[7] = tested on: rat free fat cells; assay: Lipolytic effect on rat free fat cells in vitro; type: cell-based; settings: compared with glucagon
[8] = tested on: rats; assay: Metabolic effects after administration to normally fasted and fed rats in vivo
[9] = tested on: isolated perfused rat pancreas; settings: buffer glucose concentration 1.0 mg/ml corresponding to normoglycaemia or below; statement of Danish patent application No. 2885/81; cited from earlier work
[10] = normally fed rats, i.v., glucagon 1 mg/kg, glucagon(1-21) 0.77 mg/kg

**Q.** With “glucagon-(1-21)-heneicosapeptide (HSQGTFTSDYSKYLDSRRAQD; Glucagon; UniProt P01275 53-73, looked up, fragment) [glucagon(1-21)]” as the substance, how does the IRI ([1]; time 0 min) read?
**A.** Its IRI is 18 µU/ml.

**Q.** And the IRI ([1]; time 1 min)?
**A.** Its IRI is 43 µU/ml.

**Q.** What about the IRI ([1]; time 10 min) of the same substance?
**A.** The IRI was 48 µU/ml.

**Q.** What about the IRI ([1]; time 20 min) of the same substance?
**A.** The IRI was 62 µU/ml.

**Q.** And the IRI ([1]; time 30 min)?
**A.** The IRI was 56 µU/ml.

**Q.** What about the IRI ([1]; time 40 min) of the same substance?
**A.** The IRI was 56 µU/ml.

**Q.** And the IRI ([1]; time 50 min)?
**A.** Its IRI is 60 µU/ml.

**Q.** And the IRI ([1]; time 60 min)?
**A.** Its IRI is 55 µU/ml.

**Q.** And the Blood glucose ([2]; time 0 min)?
**A.** Its Blood glucose is 0.96 mg/mL.

**Q.** What about the Blood glucose ([2]; time 15 min) of the same substance?
**A.** Its Blood glucose is 1.32 mg/mL.

**Q.** And the Blood glucose ([2]; time 30 min)?
**A.** The Blood glucose was 1.35 mg/mL.

**Q.** What about the Blood glucose ([2]; time 45 min) of the same substance?
**A.** Its Blood glucose is 1.23 mg/mL.

**Q.** What about the Blood glucose ([2]; time 60 min) of the same substance?
**A.** Its Blood glucose is 1.36 mg/mL.

**Q.** What about the Blood glucose ([2]; time 90 min) of the same substance?
**A.** The Blood glucose was 1.37 mg/mL.

**Q.** What about the Blood glucose ([2]; time 120 min) of the same substance?
**A.** Its Blood glucose is 1.37 mg/mL.

**Q.** What about the Blood glucose ([2]; time -5 min) of the same substance?
**A.** The Blood glucose was 0.89 mg/mL.

**Q.** And the glucose tolerance ([3]; glucose primed pigs, infused intravenously)?
**A.** The glucose tolerance was “improves the glucose tolerance”.

**Q.** What about the Plasma glucose ([3]; time 0 min) of the same substance?
**A.** The Plasma glucose was 0.9 mg/mL.

**Q.** And the Plasma glucose ([3]; time 15 min)?
**A.** The Plasma glucose was 1.5 mg/mL.

**Q.** What about the Plasma glucose ([3]; time 30 min) of the same substance?
**A.** The Plasma glucose was 1.7 mg/mL.

**Q.** What about the Plasma glucose ([3]; time 45 min) of the same substance?
**A.** Its Plasma glucose is 1.8 mg/mL.

**Q.** What about the Plasma glucose ([3]; time 60 min) of the same substance?
**A.** The Plasma glucose was 1.9 mg/mL.

**Q.** What about the Plasma glucose ([3]; time 75 min) of the same substance?
**A.** The Plasma glucose was 1.8 mg/mL.

**Q.** And the Plasma glucose ([3]; time 90 min)?
**A.** Its Plasma glucose is 2.0 mg/mL.

**Q.** And the Plasma glucose ([3]; time 105 min)?
**A.** Its Plasma glucose is 1.9 mg/mL.

**Q.** What about the Plasma glucose ([3]; time 120 min) of the same substance?
**A.** Its Plasma glucose is 1.9 mg/mL.

**Q.** What about the Plasma glucose ([4]; time 10 min) of the same substance?
**A.** Its Plasma glucose is 1.0 mg/mL.

**Q.** What about the Plasma glucose ([4]; time 20 min) of the same substance?
**A.** The Plasma glucose was 1.4 mg/mL.

**Q.** What about the Plasma glucose ([4]; time 30 min) of the same substance?
**A.** The Plasma glucose was 1.7 mg/mL.

**Q.** And the Plasma glucose ([4]; time 45 min)?
**A.** The Plasma glucose was 1.8 mg/mL.

**Q.** And the Plasma glucose ([4]; time 60 min)?
**A.** Its Plasma glucose is 1.9 mg/mL.

**Q.** What about the Plasma glucose ([4]; time 75 min) of the same substance?
**A.** Its Plasma glucose is 1.8 mg/mL.

**Q.** And the Plasma glucose ([4]; time 90 min)?
**A.** The Plasma glucose was 1.7 mg/mL.

**Q.** And the Plasma glucose ([4]; time 105 min)?
**A.** Its Plasma glucose is 1.7 mg/mL.

**Q.** What about the Plasma glucose ([4]; time 120 min) of the same substance?
**A.** The Plasma glucose was 2.1 mg/mL.

**Q.** And the Plasma glucose ([4]; time -5 min)?
**A.** Its Plasma glucose is 0.8 mg/mL.

**Q.** And the hyperglycaemia ([5]; in vivo in normally fed rats)?
**A.** The hyperglycaemia was “does not cause hyperglycaemia”.

**Q.** What about the insulin release ([5]; in vivo in normally fed rats) of the same substance?
**A.** Its insulin release is “does not cause hyperglycaemia or release insulin”.

**Q.** And the “IRI release and plasma glucose levels” value ([5]; infused to rats and pigs with plasma glucose levels below 1.2 mg/ml)?
**A.** Its value is “neither release IRI nor influence the plasma glucose levels”.

**Q.** And the Blood glucose ([5]; normally fed rats, time 2 min)?
**A.** The Blood glucose was 1.1 mg/mL.

**Q.** What about the “Plasma IRI” value ([5]; normally fed rats, time 2 min) of the same substance?
**A.** Its value is 30 µU/ml.

**Q.** What about the Blood glucose ([5]; normally fed rats, time 5 min) of the same substance?
**A.** Its Blood glucose is 1.1 mg/mL.

**Q.** And the “Plasma IRI” value ([5]; normally fed rats, time 5 min)?
**A.** The value was 33 µU/ml.

**Q.** What about the Blood glucose ([5]; normally fed rats, time 10 min) of the same substance?
**A.** The Blood glucose was 1.2 mg/mL.

**Q.** What about the “Plasma IRI” value ([5]; normally fed rats, time 10 min) of the same substance?
**A.** The value was 35 µU/ml.

**Q.** What about the Blood glucose ([5]; normally fed rats, time 15 min) of the same substance?
**A.** The Blood glucose was 1.3 mg/mL.

**Q.** And the “Plasma IRI” value ([5]; normally fed rats, time 15 min)?
**A.** The value was 43 µU/ml.

**Q.** What about the Blood glucose ([5]; normally fed rats, time 30 min) of the same substance?
**A.** Its Blood glucose is 1.3 mg/mL.

**Q.** What about the “Plasma IRI” value ([5]; normally fed rats, time 30 min) of the same substance?
**A.** Its value is 38 µU/ml.

**Q.** What about the Blood glucose ([5]; normally fed rats, time 60 min) of the same substance?
**A.** Its Blood glucose is 1.3 mg/mL.

**Q.** And the “Plasma IRI” value ([5]; normally fed rats, time 60 min)?
**A.** Its value is 30 µU/ml.

**Q.** And the Blood glucose ([5]; normally fed rats, time -5 min)?
**A.** The Blood glucose was 1.0 mg/mL.

**Q.** And the “Plasma IRI” value ([5]; normally fed rats, time -5 min)?
**A.** The value was 32 µU/ml.

**Q.** What about the “effect on blood glucose” value [5, 10] of the same substance?
**A.** Its value is “no effect”.

**Q.** What about the “effect on plasma IRI” value [5, 10] of the same substance?
**A.** The value was “no effect”.

**Q.** And the adverse effects [6]?
**A.** Its adverse effects is “no adverse effects”.

**Q.** What about the deaths [6] of the same substance?
**A.** The deaths was “No deaths occurred”.

**Q.** What about the lipolytic effect [7] of the same substance?
**A.** The lipolytic effect was “negligible”.

**Q.** And the metabolic effects [8]?
**A.** Its metabolic effects is “No metabolic effects have been found”.

**Q.** What about the insulin release [9] of the same substance?
**A.** Its insulin release is “does not release insulin”.
